In patent US20140287460A1, “PRODUCTION OF R[…] IN INSECT CELLS USING A B[…]” (GBIOTECH SARL, priority 2011, published 2014):

Columns and labels:
[1] = test system: bMON14272-pE2 infected SF21 cells; assay: Baculovirus virion suppression test, end point dilution assay (Example 2); assay type: cell-based
From the text: FIG. 7: Example 2. A) Generation of composite baculovirus DNA containing expression cassettes X, Y, and Z as described in FIG. 6. Baculovirus DNA bMON14272 (left) contains expression cassette Z encoding native vp80 protein. The transfer vector pE2 (right) contains expression cassettes X and Y encoding the ecdysone activator protein and shRNA, respectively. In transfer vector pE2, direction of transcription 5′ to 3′ for expression cassettes X and Y is indicated by arrows. Promoter sequences pe38 for ecdysone activator and ie-2 minimal for shRNA are indicated as are the DNA binding sites for ecdysone activator protein. Fusion of the transfer vector pE2 and bMON14272 is carried out by Tn7 transposition (indicated by the dashed cross). B) Comparison of budded infectious virus production from inducible bMON14272-pE2 (left) and non-inducible bMON14272-pDual (right) in the presence and absence of inducer molecule RG-102240. Baculovirus infected SF21 cells are incubated for 72 hours in the presence, or absence of 0.5 μM RG-102240 (indicated by + or −, bottom). […] S.E.M of three measurements is indicated by dark bars on the top of the graphs.
Other algorithms may be analogously used. […] Expression cassette Y is under control of the ie2 minimal promoter (Protein Expression and Purification 42, 236-245).
Baculovirus virion suppression tests are carried out as follows. 10 milliliters of SF21 cells in suspension culture (Nature Methods 3, 1021-1032) at density 0.5×10^6 cells/ml are infected at multiplicity of infection (M.O.I) of 1.0 with either bMON14272-pE2 or bMON14272-pFastbac Dual initial transfection virus either in the presence, or absence of 0.5 μM RG-102240 (FIG. 7B). […]
(§1) Quantification of effectiveness of RG-102240-mediated suppression of generation of baculovirus virion through shRNA targeting of the essential virus capsid protein vp80 as described above is carried out by comparing the results of the end point dilution assay with and without RG-102240-mediated expression of shRNA. […]

[2] = test system: bMON14272-pFastbac Dual infected SF21 cells; assay: Baculovirus virion suppression test, end point dilution assay, negative control virus (Example 2); assay type: cell-based; conditions: addition of 0.5 μM RG-102240, SF21 cells, 72 hours, FIG. 7B right
From the text: FIG. 7: Example 2. A) Generation of composite baculovirus DNA containing expression cassettes X, Y, and Z as described in FIG. 6. Baculovirus DNA bMON14272 (left) contains expression cassette Z encoding native vp80 protein. The transfer vector pE2 (right) contains expression cassettes X and Y encoding the ecdysone activator protein and shRNA, respectively. In transfer vector pE2, direction of transcription 5′ to 3′ for expression cassettes X and Y is indicated by arrows. Promoter sequences pe38 for ecdysone activator and ie-2 minimal for shRNA are indicated as are the DNA binding sites for ecdysone activator protein. Fusion of the transfer vector pE2 and bMON14272 is carried out by Tn7 transposition (indicated by the dashed cross). B) Comparison of budded infectious virus production from inducible bMON14272-pE2 (left) and non-inducible bMON14272-pDual (right) in the presence and absence of inducer molecule RG-102240. Baculovirus infected SF21 cells are incubated for 72 hours in the presence, or absence of 0.5 μM RG-102240 (indicated by + or −, bottom). […]
as §1

[3] = induced with 0.5 μM RG-102240, SF21 cells, 72 hours

With `CCc1c(OC)cccc1C(=O)NN(C(=O)c1cc(C)cc(C)c1)C(C)(C)C` [RG-102240] the “reduction of virus titers relative to prior art systems (bMON14272-pFastbac Dual)” value [1, 3] was “more than three fold”, the “reduction of virus titers relative to uninduced bMON14272-pE2” value [1, 3] was “more than three fold” and the “levels of budded virus production (infectious virus titre)” value ([1]; presence vs absence of 0.5 μM RG-102240, SF21 cells, M.O.I 1.0, 72 hours, FIG. 7B left) was “significantly reduced”. For the same compound, the “effect on baculovirus virion production” value [2] was “no statistically significant effect”.
